Source: article PMC6971011, “Conformational changes in Apolipoprotein N-acyltransferase (Lnt)” (Scientific Reports, 2020)

Target: T1, Apolipoprotein N-acyltransferase (Lnt); Lnt-C1, Lnt-C2 (Escherichia coli, UniProt P23930)
T1 construct: full length; C1: fifteen-residue C-terminal tail with His8-tag kept; C2: N-terminal His6-tag TEV-cleaved, two extra N-terminal residues; expressed in E. coli C41, detergent-purified
Assay: X-ray crystallography ([…] Å) and LC-MS/MS of tryptic peptide
Type: binding
Conditions: covalent; thioester on active site C387 (acyl-enzyme intermediate, co-purified from expression host); Lnt-C1 chain B; vapor diffusion, pH 6.4

CCCCCCCCCCCCCCCC(=O)O [palmitate]
X-ray crystallography (3.5 Å) and LC-MS/MS of tryptic peptide: mass spectrometry analysis (Fig. 3D) on purified Lnt that identified a palmitoyl modification at position C387
